Values of other authors as cited in patent US12472190B2, “Pharmaceutical compositions” (CIPLA Limited, priority 2010, dated 2025).

Conditions: relative to S (−) isomer of budesonide; no test described

## CCC[C@@H]1O[C@@H]2C[C@H]3[C@@H]4CCC5=CC(=O)C=C[C@]5(C)[C@H]4[C@@H](O)C[C@]3(C)[C@]2(C(=O)CO)O1 [R (+) budesonide]
  anti-inflammatory properties as compared to S (−) isomer: nearly three times as strong
